Data as given in PubChem BioAssay AID248 (DTP/NCI, 2004).
Values joined by “and” are separate entries in the source; they are usually repeats but may differ in a detail not shown here. Identical values can stand only once. Toxic doses and inconclusive results are not listed. Rule as the data show it: active = T/C of 150% or more; inactive = T/C below 125%.

Tested on: L1210 leukemia ip in BDF1 mice, survival T/C
Assay: NCI In Vivo Anticancer Drug Screen. Data for tumor model L1210 Leukemia (intraperitoneal) in B6D2F1 (BDF1) mice
Conditions: endpoint: mean survival time, higher = longer survival
In short: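 Value reflects the ratio of survival in compound-treated mice to survival in vehicle-treated controls, with both groups carrying the same transplanted tumor.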

[1] = dose: 100.0 mg/kg/injection, schedule: Q01DX001 (ip), vehicle: Klucel (hydroxypropylcellulose) (HPC)
[2] = dose: 200.0 mg/kg/injection, schedule: Q01DX001 (ip), vehicle: Klucel (hydroxypropylcellulose) (HPC)
[3] = dose: 400.0 mg/kg/injection, schedule: Q01DX001 (ip), vehicle: Klucel (hydroxypropylcellulose) (HPC)
[4] = dose: 100.0 mg/kg/injection, schedule: Q04DX003 (ip), vehicle: saline with Tween-80
[5] = dose: 200.0 mg/kg/injection, schedule: Q04DX003 (ip), vehicle: saline with Tween-80
[6] = dose: 400.0 mg/kg/injection, schedule: Q04DX003 (ip), vehicle: saline with Tween-80
[7] = dose: 100.0 mg/kg/injection, schedule: Q01DX001 (ip), vehicle: carboxymethylcellulose (CMC)
[8] = dose: 200.0 mg/kg/injection, schedule: Q01DX001 (ip), vehicle: carboxymethylcellulose (CMC)
[9] = dose: 400.0 mg/kg/injection, schedule: Q01DX001 (ip), vehicle: carboxymethylcellulose (CMC)
[10] = dose: 75.0 mg/kg/injection, schedule: Q01DX001 (ip), vehicle: carboxymethylcellulose (CMC)
[11] = dose: 150.0 mg/kg/injection, schedule: Q01DX001 (ip), vehicle: carboxymethylcellulose (CMC)
[12] = dose: 50.0 mg/kg/injection, schedule: Q01DX001 (ip), vehicle: carboxymethylcellulose (CMC)

Measured: T/C

CC(=O)NCCCCCCCCCCNC(C)=O
inactive: dose: 10.0 mg/kg/injection, schedule: Q01DX Z (ip), vehicle: saline 91 % of control | dose: 30.0 mg/kg/injection, schedule: Q01DX Z (ip), vehicle: saline 95 % of control | dose: 100.0 mg/kg/injection, schedule: Q01DX Z (ip), vehicle: saline 95 % of control | dose: 300.0 mg/kg/injection, schedule: Q01DX Z (ip), vehicle: saline 98 % of control

CC1CCC2(O)C3(C)CC(=O)OC2(C1O)C1(O)C(C)C(O)(C(C)C)C(O)C31O (configuration not stated)
inactive: dose: 5.0 mg/kg/injection, schedule: Q01DX001 (ip), vehicle: saline 101 % of control

CN1C2CCC1CC(OC1c3ccccc3CCc3ccccc31)C2 (configuration not stated)
inactive: dose: 6.25 mg/kg/injection, schedule: Q01DX009 (ip), vehicle: saline 105 % of control | dose: 12.5 mg/kg/injection, schedule: Q01DX009 (ip), vehicle: saline 104 % of control | dose: 25.0 mg/kg/injection, schedule: Q01DX009 (ip), vehicle: saline 101 % of control | dose: 50.0 mg/kg/injection, schedule: Q01DX009 (ip), vehicle: saline 101 % of control

Cc1ccc(C)[nH]1
inactive: dose: 5.0 mg/kg/injection, schedule: Q01DX009 (ip), vehicle: saline with Tween-80 96 % of control | dose: 5.0 mg/kg/injection, schedule: Q04DX003 (ip), vehicle: saline with Tween-80 93 % of control | dose: 10.0 mg/kg/injection, schedule: Q01DX009 (ip), vehicle: saline with Tween-80 94 % of control | dose: 10.0 mg/kg/injection, schedule: Q04DX003 (ip), vehicle: saline with Tween-80 98 % of control | dose: 20.0 mg/kg/injection, schedule: Q01DX009 (ip), vehicle: saline with Tween-80 100 % of control | dose: 20.0 mg/kg/injection, schedule: Q04DX003 (ip), vehicle: saline with Tween-80 93 % of control

O=[N+]([O-])c1ccc(NCc2ccccc2O)cc1
inactive: dose: 75.0 mg/kg/injection, schedule: Q04DX003 (ip), vehicle: other 110 % of control | [1] 101 % of control | dose: 150.0 mg/kg/injection, schedule: Q04DX003 (ip), vehicle: other 97 % of control | [2] 106 % of control | dose: 300.0 mg/kg/injection, schedule: Q04DX003 (ip), vehicle: other 103 % of control | [3] 101 % of control

O=C1/C(=C\c2ccc(OCc3ccccc3)cc2)N2CCC1CC2
inactive: [4] 97 % of control | [5] 95 % of control | [6] 87 % of control

C(=N\N1CCN(/N=C/c2cccc3ccccc23)CC1)/c1cccc2ccccc12
inactive: [7] 93 % of control | [8] 90 % of control | [9] 88 % of control

O=C(CNC(=O)OCc1ccccc1)NC(Cc1ccccc1)C(=O)Oc1c(Cl)c(Cl)c(Cl)c(Cl)c1Cl (configuration not stated)
inactive: [10] 106 % of control | [11] 98 % of control | dose: 300.0 mg/kg/injection, schedule: Q01DX001 (ip), vehicle: carboxymethylcellulose (CMC) 91 % of control

Cc1nc(N)nc(Cl)c1CCCc1ccccc1
inactive: [1] 97 % of control | [2] 102 % of control | [3] 107 % of control

COc1cc([N+](=O)[O-])c(C)cc1Nc1ccc(OC)c(OC)c1
inactive: dose: 100.0 mg/kg/injection, schedule: Q01DX009 (ip), vehicle: saline with Tween-80 105 % of control | [4] 98 % of control | dose: 200.0 mg/kg/injection, schedule: Q01DX009 (ip), vehicle: saline with Tween-80 96 % of control | [5] 93 % of control | dose: 400.0 mg/kg/injection, schedule: Q01DX009 (ip), vehicle: saline with Tween-80 96 % of control | [6] 92 % of control

NCCOP(=O)(O)OCC1OC(n2cnc3c(N)ncnc32)C(O)C1O (configuration not stated)
inactive: dose: 100.0 mg/kg/injection, schedule: Q01DX005 (ip), vehicle: saline 92 % of control | dose: 200.0 mg/kg/injection, schedule: Q01DX005 (ip), vehicle: saline 92 % of control

CC(=O)N\C(N)=N/N=C\C(C)=N/N=C(\N)NC(C)=O
inactive: dose: 15.0 mg/kg/injection, schedule: Q01DX Z (ip), vehicle: carboxymethylcellulose (CMC) 94 % of control | dose: 30.0 mg/kg/injection, schedule: Q01DX Z (ip), vehicle: carboxymethylcellulose (CMC) 94 % of control | dose: 60.0 mg/kg/injection, schedule: Q01DX Z (ip), vehicle: carboxymethylcellulose (CMC) 97 % of control and 100 % of control | dose: 120.0 mg/kg/injection, schedule: Q01DX Z (ip), vehicle: carboxymethylcellulose (CMC) 94 % of control and 102 % of control | dose: 240.0 mg/kg/injection, schedule: Q01DX Z (ip), vehicle: carboxymethylcellulose (CMC) 109 % of control

CCOC(=O)Cc1c(C)c2cc(C(=O)c3ccccc3)c(O)cc2oc1=O
inactive: dose: 100.0 mg/kg/injection, schedule: Q01DX001 (ip), vehicle: saline 98 % of control | dose: 200.0 mg/kg/injection, schedule: Q01DX001 (ip), vehicle: saline 96 % of control | dose: 400.0 mg/kg/injection, schedule: Q01DX001 (ip), vehicle: saline 93 % of control

O=S(=O)(c1ccc(I)cc1)c1ccc(I)cc1
inactive: [12] 104 % of control | [7] 95 % of control | [8] 88 % of control | [9] 95 % of control

COc1ccc(CN2CCCN(Cc3ccc(OC)cc3OC)C2c2cc([N+](=O)[O-])ccc2O)c(OC)c1
inactive: [12] 107 % of control | [7] 98 % of control | [8] 101 % of control | [9] 98 % of control

O=C(SCCN1CCCC1)N1c2ccccc2Sc2ccc(Cl)cc21
inactive: [10] 94 % of control | [11] 94 % of control

CC(=O)CC(=O)Nc1cccc(NC(=O)CC(C)=O)c1
inactive: [1] 99 % of control | [2] 94 % of control | [3] 101 % of control

O=C(O)CCOc1ccccc1[N+](=O)[O-]
inactive: dose: 37.5 mg/kg/injection, schedule: Q01DX009 (ip), vehicle: saline with Tween-80 91 % of control | dose: 75.0 mg/kg/injection, schedule: Q01DX009 (ip), vehicle: saline with Tween-80 91 % of control | dose: 100.0 mg/kg/injection, schedule: Q01DX009 (ip), vehicle: Klucel (hydroxypropylcellulose) (HPC) 97 % of control | dose: 150.0 mg/kg/injection, schedule: Q01DX009 (ip), vehicle: saline with Tween-80 88 % of control | dose: 200.0 mg/kg/injection, schedule: Q01DX009 (ip), vehicle: Klucel (hydroxypropylcellulose) (HPC) 87 % of control | dose: 400.0 mg/kg/injection, schedule: Q01DX009 (ip), vehicle: Klucel (hydroxypropylcellulose) (HPC) 95 % of control

Cc1nnc(NN)nc1C
inactive: dose: 6.25 mg/kg/injection, schedule: Q01DX009 (ip), vehicle: saline with Tween-80 101 % of control | dose: 6.25 mg/kg/injection, schedule: Q04DX003 (ip), vehicle: saline with Tween-80 100 % of control | dose: 12.5 mg/kg/injection, schedule: Q01DX001 (ip), vehicle: saline with Tween-80 112 % of control | dose: 12.5 mg/kg/injection, schedule: Q01DX009 (ip), vehicle: saline with Tween-80 103 % of control | dose: 12.5 mg/kg/injection, schedule: Q04DX003 (ip), vehicle: saline with Tween-80 103 % of control | dose: 25.0 mg/kg/injection, schedule: Q01DX001 (ip), vehicle: saline with Tween-80 100 % of control | dose: 25.0 mg/kg/injection, schedule: Q04DX003 (ip), vehicle: saline with Tween-80 95 % of control

Nc1ccc(N)c(C(=O)O)c1
inactive: dose: 75.0 mg/kg/injection, schedule: Q01DX001 (ip), vehicle: other 98 % of control | dose: 150.0 mg/kg/injection, schedule: Q01DX001 (ip), vehicle: other 93 % of control

CN(C)c1ccc(/C=N/Nc2ncnc3nc[nH]c23)cc1
inactive: [4] 98 % of control | [5] 96 % of control | [6] 91 % of control

O=S(Sc1ccccc1)c1ccccc1 (configuration not stated)
inactive: dose: 0.94 mg/kg/injection, schedule: Q01DX Z (ip), vehicle: saline 104 % of control | dose: 3.75 mg/kg/injection, schedule: Q01DX Z (ip), vehicle: saline 96 % of control

COc1cc(C(=O)NCC(=O)O)cc(OC)c1OC
inactive: dose: 100.0 mg/kg/injection, schedule: Q01DX009 (ip), vehicle: saline 86 % of control | dose: 100.0 mg/kg/injection, schedule: Q04DX003 (ip), vehicle: saline 107 % of control | dose: 200.0 mg/kg/injection, schedule: Q01DX009 (ip), vehicle: saline 86 % of control | dose: 200.0 mg/kg/injection, schedule: Q04DX003 (ip), vehicle: saline 98 % of control | dose: 400.0 mg/kg/injection, schedule: Q04DX003 (ip), vehicle: saline 95 % of control
